{
  "source": "patent US20110288032A1",
  "about": "“ENZASTAURIN FOR THE TREATMENT OF CANCER” (ELI LILLY AND COMPANY, priority 2008, published 2011)",
  "format_in_all_cases": "cell-based, human",
  "key": {"HCT116 cells": {"system": "HCT116 cells", "experiment": "siRNA sensitization of Enzastaurin drug response, CellTiter Glo cell viability", "settings": "for IC50: Homo sapiens, HCT-116, 72 h, 72 h Enzastaurin", "experimental": "HCT116 cells are obtained from American Tissue Culture Collection, ATCC (Rockville, Md., USA) and cultured in McCoy's 5A medium supplemented with 2 mM L-glutamine and 10% fetal bovine serum (FBS), in a humidified 37° C. incubator with 5% CO2. Plates (384-well) are pre-printed using 2 siRNAs per target in the Druggable Genome v2 Library (Qiagen) such that each well contains 13 nM of an individual siRNA duplex. High throughput reverse transfections are performed by adding transfection agent Lipofectamine 2000 (Invitrogen) and 1500 cells diluted in McCoy's 5A medium supplemented with 2 mM L-glutamine and 2% FBS into each well following a standard reverse transfection protocol. Twenty-four hours post transfection, each assay plate is treated with or without 5 concentrations (0-10 μM) of Enzastaurin in 1% DMSO. Seventy-two hours later, cell viability is measured using chemiluminescence based CellTiter Glo (Promega) assay readout, according to manufacturer's recommendations. UBB siRNA (Qiagen) is the positive cell killing control and All Star Non-silencing (NS-AS) or green fluorescent protein (GFP) is the negative control. Raw signal values are normalized to untreated control wells to compare across plates. These are fit to a 4-parameter logistical model to determine IC50 values. A ‘shift’ in IC50 with respect to the negative control (described above) is calculated as: (IC50 target−IC50 control) divided by IC50 control."}, "RKO (HDAC 2+/−)": {"system": "RKO (HDAC 2+/−)", "experiment": "Enzastaurin drug dose response, CellTiter Glo cell viability", "settings": "RKO cells", "experimental": "(§1) The human colon cancer cell line, HCT116 (HDAC 2 w.t), and RKO (HDAC 2+/−), a cell line containing a nonsense mutation resulting in null protein expression of HDAC2 relative to HCT116, are obtained from American Tissue Culture Collection, ATCC (Rockville, Md., USA) and cultured in the ATCC recommended growth medium supplemented with 2 mM L-glutamine and 10% FBS, in a humidified 37° C. incubator with 5% CO2. Drug dose response experiments are performed by seeding 1000-2000 cells diluted in McCoy's 5A medium containing 25 mM N-2-hydroxyethylpiperazine-N′-2-ethanesulfonic acid (HEPES), 2 mM L-glutamine and 2% fetal bovine serum (FBS) followed by treatment with or without serial dilutions of Enzastaurin (0-100 μM) in 1% DMSO. Seventy-two or ninety-six hours later, cell viability is measured using chemiluminescence based CellTiter Glo (Promega) assay readout, according to manufacturer's recommendations. Raw signal values are normalized to untreated control and analyzed by non-linear curve fitting in GraphPad Prism (La Jolla, Calif., USA)."}, "HCT116 (HDAC 2 w.t)": {"system": "HCT116 (HDAC 2 w.t)", "experiment": "Enzastaurin drug dose response, CellTiter Glo cell viability", "settings": "HCT116 cells", "experimental": "as §1"}},
  "data": [
    {"smiles": "Cn1cc(C2=C(c3cn(C4CCN(Cc5ccccn5)CC4)c4ccccc34)C(=O)NC2=O)c2ccccc21", "note": "[Enzastaurin, 3-(1-methyl-1H-indol-3-yl)-4-[1-[1-(pyridin-2-ylmethyl)piperidin-4-yl]-1H-indol-3-yl]-1H-pyrrole-2,5-dione]", "values": [
      {"measurement": "shift in IC50 values relative to negative control", "setting": "HCT116 cells; HCT116, three siRNAs that target HDAC2", "value": "> 2", "unit": "fold"},
      {"measurement": "cell killing in high content images", "setting": "HCT116 cells; HCT116 treated with Enzastaurin and HDAC2 siRNA relative to negative controls and either condition alone, data not shown", "value": "higher degree of cell killing"},
      {"measurement": "IC50", "setting": "HCT116 cells; HCT116, HDAC2 siRNA: None (negative control)", "value": 3690, "unit": "nM"},
      {"measurement": "IC50", "setting": "HCT116 cells; HCT116 transfected with HDAC2 siRNA SEQ ID NO: 1", "value": 1360, "unit": "nM"},
      {"measurement": "IC50", "setting": "HCT116 cells; HCT116 transfected with HDAC2 siRNA SEQ ID NO: 2", "value": 1680, "unit": "nM"},
      {"measurement": "IC50", "setting": "HCT116 cells; HCT116 transfected with HDAC2 siRNA SEQ ID NO: 3", "value": 2010, "unit": "nM"},
      {"measurement": "IC50", "setting": "RKO (HDAC 2+/−); Homo sapiens, 72 or 96 h", "value": 3560, "unit": "nM"},
      {"measurement": "maximum killing effect", "setting": "RKO (HDAC 2+/−)", "value": "95-100%"},
      {"measurement": "maximum killing effect", "setting": "HCT116 (HDAC 2 w.t)", "value": "50-60%"},
      {"measurement": "IC50", "setting": "HCT116 (HDAC 2 w.t); Homo sapiens, HCT-116, 72 or 96 h", "value": 8340, "unit": "nM"}
    ]}
  ]
}
